Assay results: ChEMBL document CHEMBL1201862, “PubChem BioAssay data set” (2004)
Calls of active or inactive are those of the source.

How the values were obtained:
[1] = target: T1, Exodeoxyribonuclease V (Escherichia coli (strain K12), UniProt P04993+P07648+P08394); assay: E. coli RecBCD inhibitors, dose response, counter-screen for AddAB inhibitor project, absorbance, V66 E. coli, mutant T4 phage (AID 492957); type: functional, cell-based, Escherichia coli str. K-12 substr. MG1655
T1 sequence (P04993 whole entry): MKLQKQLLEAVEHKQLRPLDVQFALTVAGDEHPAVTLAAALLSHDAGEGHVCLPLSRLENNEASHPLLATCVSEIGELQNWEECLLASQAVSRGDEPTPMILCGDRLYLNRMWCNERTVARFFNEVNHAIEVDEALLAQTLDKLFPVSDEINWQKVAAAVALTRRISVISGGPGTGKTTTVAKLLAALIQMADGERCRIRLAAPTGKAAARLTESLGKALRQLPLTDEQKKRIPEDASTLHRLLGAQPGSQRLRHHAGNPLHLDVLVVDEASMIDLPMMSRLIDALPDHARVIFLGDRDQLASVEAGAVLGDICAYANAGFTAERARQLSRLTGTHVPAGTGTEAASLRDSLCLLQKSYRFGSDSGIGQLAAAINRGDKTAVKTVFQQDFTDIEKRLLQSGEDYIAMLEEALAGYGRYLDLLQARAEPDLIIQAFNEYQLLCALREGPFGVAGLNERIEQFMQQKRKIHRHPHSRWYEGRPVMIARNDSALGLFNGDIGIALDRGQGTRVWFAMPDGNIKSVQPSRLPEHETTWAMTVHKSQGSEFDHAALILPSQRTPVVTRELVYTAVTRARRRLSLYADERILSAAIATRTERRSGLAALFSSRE
T1 sequence (P07648 whole entry): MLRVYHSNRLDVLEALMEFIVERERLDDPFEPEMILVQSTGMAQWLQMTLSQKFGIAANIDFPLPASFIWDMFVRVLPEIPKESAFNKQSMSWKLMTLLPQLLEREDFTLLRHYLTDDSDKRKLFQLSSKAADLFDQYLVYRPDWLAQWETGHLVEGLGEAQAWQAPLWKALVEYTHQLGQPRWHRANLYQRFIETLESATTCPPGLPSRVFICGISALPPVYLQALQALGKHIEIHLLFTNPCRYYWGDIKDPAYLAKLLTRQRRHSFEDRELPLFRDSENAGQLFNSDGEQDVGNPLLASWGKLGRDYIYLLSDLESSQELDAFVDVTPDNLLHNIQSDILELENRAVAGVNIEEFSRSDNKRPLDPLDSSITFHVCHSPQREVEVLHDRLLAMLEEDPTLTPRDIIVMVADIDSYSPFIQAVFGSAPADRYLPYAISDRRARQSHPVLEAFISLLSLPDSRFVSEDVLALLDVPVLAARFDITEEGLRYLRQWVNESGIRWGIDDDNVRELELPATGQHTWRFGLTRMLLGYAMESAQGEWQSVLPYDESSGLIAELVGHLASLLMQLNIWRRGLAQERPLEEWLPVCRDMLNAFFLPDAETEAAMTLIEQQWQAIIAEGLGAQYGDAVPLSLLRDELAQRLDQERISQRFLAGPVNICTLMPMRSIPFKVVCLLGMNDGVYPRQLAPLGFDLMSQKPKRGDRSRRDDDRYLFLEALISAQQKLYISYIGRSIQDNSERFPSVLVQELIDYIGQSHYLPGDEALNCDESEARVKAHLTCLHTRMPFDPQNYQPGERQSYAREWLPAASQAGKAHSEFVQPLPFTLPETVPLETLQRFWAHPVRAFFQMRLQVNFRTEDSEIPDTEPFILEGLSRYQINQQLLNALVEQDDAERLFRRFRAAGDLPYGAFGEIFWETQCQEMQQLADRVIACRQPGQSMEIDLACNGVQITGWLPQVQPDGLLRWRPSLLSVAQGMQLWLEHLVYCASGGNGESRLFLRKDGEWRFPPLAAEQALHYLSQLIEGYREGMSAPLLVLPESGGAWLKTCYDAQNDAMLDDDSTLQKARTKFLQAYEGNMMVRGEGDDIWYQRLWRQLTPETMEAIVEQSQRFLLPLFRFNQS
T1 sequence (P08394 whole entry): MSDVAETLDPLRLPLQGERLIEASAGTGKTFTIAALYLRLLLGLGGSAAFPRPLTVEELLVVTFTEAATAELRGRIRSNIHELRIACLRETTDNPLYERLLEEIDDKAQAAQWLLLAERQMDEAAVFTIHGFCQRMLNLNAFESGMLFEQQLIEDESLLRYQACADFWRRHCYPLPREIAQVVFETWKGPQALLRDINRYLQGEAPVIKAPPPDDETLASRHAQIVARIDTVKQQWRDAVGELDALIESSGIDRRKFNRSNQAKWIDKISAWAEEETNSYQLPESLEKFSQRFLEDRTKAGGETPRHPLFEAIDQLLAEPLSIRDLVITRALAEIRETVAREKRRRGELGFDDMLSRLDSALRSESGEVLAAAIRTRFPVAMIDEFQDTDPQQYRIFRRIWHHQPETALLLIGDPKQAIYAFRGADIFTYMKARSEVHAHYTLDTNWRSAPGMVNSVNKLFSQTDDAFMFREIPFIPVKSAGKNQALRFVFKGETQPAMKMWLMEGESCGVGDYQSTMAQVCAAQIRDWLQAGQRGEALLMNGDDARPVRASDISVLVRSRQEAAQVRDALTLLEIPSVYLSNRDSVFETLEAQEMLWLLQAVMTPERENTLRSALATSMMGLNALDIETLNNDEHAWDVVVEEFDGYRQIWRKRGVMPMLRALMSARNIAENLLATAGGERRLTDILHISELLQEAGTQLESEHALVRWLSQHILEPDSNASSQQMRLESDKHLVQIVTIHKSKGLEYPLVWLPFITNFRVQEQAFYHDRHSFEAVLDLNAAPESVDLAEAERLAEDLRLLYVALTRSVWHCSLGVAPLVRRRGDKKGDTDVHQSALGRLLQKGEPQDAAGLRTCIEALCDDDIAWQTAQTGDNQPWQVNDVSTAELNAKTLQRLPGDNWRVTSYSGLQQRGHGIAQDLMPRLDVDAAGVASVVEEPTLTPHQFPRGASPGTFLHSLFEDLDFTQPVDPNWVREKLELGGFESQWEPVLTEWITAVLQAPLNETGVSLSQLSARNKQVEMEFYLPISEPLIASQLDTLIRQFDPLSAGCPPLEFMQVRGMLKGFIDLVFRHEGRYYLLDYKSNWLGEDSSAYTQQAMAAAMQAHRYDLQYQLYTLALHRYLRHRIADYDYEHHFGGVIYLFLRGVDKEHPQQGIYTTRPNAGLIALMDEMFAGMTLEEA

[2] = system: Streptococcus sp. 'group A'; assay: growth inhibition of control SK(-) GAS strain, dose response, counter-screen for streptokinase expression inhibitor project, luminescence, kanamycin, BacTiterGlo, confirmation (AID 1900); type: functional, organism-based

Row | SMILES | IC50 [1] | EC50 [2]
1 | O=C(Nc1cccc(NC(=O)c2ccccc2Cl)c1)c1ccc([N+](=O)[O-])o1 | > 119 µM (inactive) | 4.47 µM (active)
2 | COc1ccc(CC2=CC(=O)c3ccccc3C2=O)cc1 |  | 11.4 µM (active)
3 | Cn1c(O)c(/C=N/NC(=O)c2cc3ccccc3cc2O)c2ccccc21 | > 119 µM (inactive) | 
